One assay concerns the target T1, TLR4 (Mus musculus, UniProt Q9QUK6).
T1 construct: endogenous in cells; host or cells: RAW264.7 (murine macrophage cell line)
T1 sequence (Q9QUK6 26-835): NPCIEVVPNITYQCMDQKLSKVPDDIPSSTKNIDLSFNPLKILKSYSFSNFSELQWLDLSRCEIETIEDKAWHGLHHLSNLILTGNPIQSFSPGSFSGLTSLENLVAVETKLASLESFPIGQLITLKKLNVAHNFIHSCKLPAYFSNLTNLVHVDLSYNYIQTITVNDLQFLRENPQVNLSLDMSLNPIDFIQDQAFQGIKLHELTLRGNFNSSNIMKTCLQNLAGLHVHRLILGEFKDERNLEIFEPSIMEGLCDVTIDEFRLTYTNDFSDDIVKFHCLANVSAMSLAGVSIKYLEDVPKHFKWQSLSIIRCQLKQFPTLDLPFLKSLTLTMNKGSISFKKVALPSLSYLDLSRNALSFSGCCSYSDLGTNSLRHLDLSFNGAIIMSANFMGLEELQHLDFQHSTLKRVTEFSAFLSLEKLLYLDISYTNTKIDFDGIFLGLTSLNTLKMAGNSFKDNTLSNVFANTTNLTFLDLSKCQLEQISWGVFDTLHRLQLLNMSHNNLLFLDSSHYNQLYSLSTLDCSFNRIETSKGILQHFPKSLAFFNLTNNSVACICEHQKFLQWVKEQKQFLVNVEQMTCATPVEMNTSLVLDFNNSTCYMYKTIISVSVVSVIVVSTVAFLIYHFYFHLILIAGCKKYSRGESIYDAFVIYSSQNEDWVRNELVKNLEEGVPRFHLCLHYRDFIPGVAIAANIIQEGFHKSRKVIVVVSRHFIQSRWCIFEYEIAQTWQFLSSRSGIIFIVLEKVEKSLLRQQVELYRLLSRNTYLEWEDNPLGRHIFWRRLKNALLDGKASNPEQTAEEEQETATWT
T1 sequence (Q9JHF9 19-160 partner): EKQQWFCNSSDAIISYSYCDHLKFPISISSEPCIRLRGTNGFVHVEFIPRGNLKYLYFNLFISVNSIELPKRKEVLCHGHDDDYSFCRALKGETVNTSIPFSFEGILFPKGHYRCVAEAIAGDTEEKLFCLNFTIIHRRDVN
In words: Inhibitory effect with respect to NO production (LPS/interferon γ-stimulated RAW264.7). Format: cell-based, murine. Conditions: RAW264.7 cells, LPS 1.25 ng/mL and mouse interferon γ 0.2 ng/mL, nitrite ion in culture supernatant. As for the experimental part:
The inhibitory effect on TLR4 was determined using the inhibition rate due to the test compound with respect to NO production as a result of addition of lipopolysaccharide (LPS) using murine macrophage cell line RAW264.7. The cells were adjusted to 2×10^6 cells/mL using RPM1-1640 culture medium (phenol red free) supplemented with 10% inactivated bovine fetal serum, and were plated on 384 well plate so as to contain 6×10^4 cells/30 μL per well. Thereafter the cells were cultured at 37° C. overnight under 5% CO2/95% air. The test compound dissolved in DMSO was diluted 200 times using RPM1-1640 culture medium and adjusted so as to form a compound concentration of 500 nM. The prepared test compound 10 μL (final concentration 100 nM) was added to the cells, and LPS (Sigma) and mouse interferon γ (Wako Pure Chemicals) were added in amounts of 10 μL so as to form final concentrations of 1.25 ng/mL and 0.2 ng/mL respectively. The cells were further cultured overnight, and then the nitrite ion (stable NO metabolite) concentration in the culture supernatant was measured as an index of NO production. The nitrite ion concentration was assayed by adding 10 μL of 20 μg/mL 2,3-diamino naphthalene (DAN) dissolved in 0.2N HCl to 20 μL culture supernatant, incubating at room temperature for ten minutes, and then adding 10 μL of 0.5N NaOH, and measuring the fluorescent value at 460 nm (excitation wavelength 355 nm) using an EnVision plate reader (Perkin Elmer). The NO production inhibition rate (%) was calculated using the value without the addition of stimulating agent as control of 100% inhibition, and the value without the addition of the compound as control of 0% inhibition.

Assay [1] deals with liver injury by Galactosamine/LPS stimulation. In words: Action on liver injury by Galactosamine/LPS stimulation (blood plasma ALT). The assay is classed as in vivo. The conditions noted are these: BALB/c mice; for ALT amount in the blood plasma: 8 hr, mean ± standard error. As for the experimental part:
The action on liver injury by Galactosamine/LPS stimulation was evaluated by elevation of blood alanine transaminase (ALT) amount as an index. Galactosamine (700 mg/kg) and LPS (5 μg/kg) were administered intraperitoneally to BALB/c mice (female, 7 weeks old, Japan Charles River). After 8 hr, the blood was collected in the presence of heparin. The obtained blood was centrifuged (4° C., 10000×rpm, 10 min), and the blood plasma was collected, and the ALT amount in the blood plasma was measured by 7180 type Hitachi automated analytical apparatus (Hitachi High-Technologies Corporation). Compound 6 was dissolved in 10% captisol solution (0.3, 1, 3 mg/kg), and the solution was administered intravenously to the mice in the tail vein 1 hr before Galactosamine/LPS administration.

Turning to `CCOC(=O)C1=CC2(CC[C@H]1S(=O)(=O)[C@H]1CCc3cccc(Cl)c31)O[C@H](CO)[C@@H](CO)O2` [Compound 6, Ethyl (2R,3R,8R)-8-(((1S)-7-chloro-2,3-dihydro-1H-inden-1-yl)sulfonyl)-2,3-bis(hydroxymethyl)-1,4-dioxaspiro[4.5]dec-6-ene-7-carboxylate], the “NO production inhibitory effect at 100 nM (% inhibition)” value at TLR4 is 103 % inhibition. Moreover, the entries for the “ALT amount in the blood plasma” value in assay [1] (0.3 mg/kg i.v. 1 hr before Galactosamine/LPS), in assay [1] (1 mg/kg i.v. 1 hr before Galactosamine/LPS) and in assay [1] (3 mg/kg i.v. 1 hr before Galactosamine/LPS) were 570 ± 94 IU/L, 361 ± 60 IU/L and 104 ± 10 IU/L, respectively. Also, the “Effect on the increase in the ALT amount in the blood plasma due to Galactosamine/LPS stimulation (in words)” value in assay [1] (0.3, 1, 3 mg/kg i.v.) was “dose-dependently and significantly inhibited the increase in the ALT amount”.

The values are drawn from patent publication US9828357B2, “Cyclic compounds” (Takeda Pharmaceutical Company Limited, priority 2015, dated 2017).
